Data as given in ChEMBL document CHEMBL1131124, “Selective inhibitors of human lactate dehydrogenases and lactate dehydrogenase from the malarial parasite Plasmodium falciparum” (J Med Chem, 1998).
pKi: −log10 of the molar value.

Molecular target: L-lactate dehydrogenase B chain (Homo sapiens, UniProt P07195)
Sequence (P07195 whole entry): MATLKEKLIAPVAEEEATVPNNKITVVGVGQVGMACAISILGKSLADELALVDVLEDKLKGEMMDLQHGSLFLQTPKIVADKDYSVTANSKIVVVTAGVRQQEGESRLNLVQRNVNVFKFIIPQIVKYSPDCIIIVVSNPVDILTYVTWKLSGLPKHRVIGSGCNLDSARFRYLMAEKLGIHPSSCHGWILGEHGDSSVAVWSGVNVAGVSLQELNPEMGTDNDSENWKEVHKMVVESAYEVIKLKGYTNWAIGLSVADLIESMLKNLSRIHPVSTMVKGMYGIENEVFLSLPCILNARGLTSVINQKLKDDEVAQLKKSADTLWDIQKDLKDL
Description: inhibitory activity against Human Lactate Dehydrogenase (LDH-H)

| SMILES | pKi |
| --- | --- |
| Cc1cc2c(C(C)C)c(O)c(O)c(C(=O)O)c2cc1Cc1ccccc1 | 5.15 |
| CCCc1c(O)c(O)c(C(=O)O)c2ccc(C)cc12 | 4.31 |
| CCCc1c(O)c(O)c(C(=O)O)c2cc(Cc3ccccc3)c(C)cc12 | 6.00 |
